Test [1] addresses T1, Sphingosine 1-phosphate receptor 4 (Homo sapiens, UniProt O95977).
T1 sequence (O95977 whole entry): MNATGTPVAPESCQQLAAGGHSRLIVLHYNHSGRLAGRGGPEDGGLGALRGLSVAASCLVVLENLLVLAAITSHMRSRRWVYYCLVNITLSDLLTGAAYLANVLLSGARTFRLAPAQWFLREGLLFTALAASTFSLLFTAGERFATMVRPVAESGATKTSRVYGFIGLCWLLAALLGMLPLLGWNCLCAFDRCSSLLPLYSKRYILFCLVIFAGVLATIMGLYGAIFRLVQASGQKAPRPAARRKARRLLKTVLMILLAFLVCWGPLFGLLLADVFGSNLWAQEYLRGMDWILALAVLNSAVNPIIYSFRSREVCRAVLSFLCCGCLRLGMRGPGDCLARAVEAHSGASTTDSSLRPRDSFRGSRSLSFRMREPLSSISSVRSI
In words: Late-stage fluorescence dose response cell-based assay to identify agonists of the Sphingosine 1-Phosphate Receptor 4 (S1P4): purchased compounds EC50. [Related pubchem assays (depositor defined):AID1509, AID1523, AID1563, AID1686, AID1701, AID1801]. It is filed as functional.

Another test has as its system Saccharomyces cerevisiae. Description: S. cerevisiae Caspase-1/ASC signal blockers IC50, NALP1 inhibitor project selectivity test (AID 488863). Format: functional, organism-based.
In test [2] the target is NACHT, LRR and PYD domains-containing protein 1 (Homo sapiens, UniProt Q9C000). In words: NALP1 inhibitors in yeast, dose response, luminescent (AID 488860). Format: functional.
Chain of NACHT, LRR and PYD domains-containing protein 1 (Q9C000 1-1212 limits assumed): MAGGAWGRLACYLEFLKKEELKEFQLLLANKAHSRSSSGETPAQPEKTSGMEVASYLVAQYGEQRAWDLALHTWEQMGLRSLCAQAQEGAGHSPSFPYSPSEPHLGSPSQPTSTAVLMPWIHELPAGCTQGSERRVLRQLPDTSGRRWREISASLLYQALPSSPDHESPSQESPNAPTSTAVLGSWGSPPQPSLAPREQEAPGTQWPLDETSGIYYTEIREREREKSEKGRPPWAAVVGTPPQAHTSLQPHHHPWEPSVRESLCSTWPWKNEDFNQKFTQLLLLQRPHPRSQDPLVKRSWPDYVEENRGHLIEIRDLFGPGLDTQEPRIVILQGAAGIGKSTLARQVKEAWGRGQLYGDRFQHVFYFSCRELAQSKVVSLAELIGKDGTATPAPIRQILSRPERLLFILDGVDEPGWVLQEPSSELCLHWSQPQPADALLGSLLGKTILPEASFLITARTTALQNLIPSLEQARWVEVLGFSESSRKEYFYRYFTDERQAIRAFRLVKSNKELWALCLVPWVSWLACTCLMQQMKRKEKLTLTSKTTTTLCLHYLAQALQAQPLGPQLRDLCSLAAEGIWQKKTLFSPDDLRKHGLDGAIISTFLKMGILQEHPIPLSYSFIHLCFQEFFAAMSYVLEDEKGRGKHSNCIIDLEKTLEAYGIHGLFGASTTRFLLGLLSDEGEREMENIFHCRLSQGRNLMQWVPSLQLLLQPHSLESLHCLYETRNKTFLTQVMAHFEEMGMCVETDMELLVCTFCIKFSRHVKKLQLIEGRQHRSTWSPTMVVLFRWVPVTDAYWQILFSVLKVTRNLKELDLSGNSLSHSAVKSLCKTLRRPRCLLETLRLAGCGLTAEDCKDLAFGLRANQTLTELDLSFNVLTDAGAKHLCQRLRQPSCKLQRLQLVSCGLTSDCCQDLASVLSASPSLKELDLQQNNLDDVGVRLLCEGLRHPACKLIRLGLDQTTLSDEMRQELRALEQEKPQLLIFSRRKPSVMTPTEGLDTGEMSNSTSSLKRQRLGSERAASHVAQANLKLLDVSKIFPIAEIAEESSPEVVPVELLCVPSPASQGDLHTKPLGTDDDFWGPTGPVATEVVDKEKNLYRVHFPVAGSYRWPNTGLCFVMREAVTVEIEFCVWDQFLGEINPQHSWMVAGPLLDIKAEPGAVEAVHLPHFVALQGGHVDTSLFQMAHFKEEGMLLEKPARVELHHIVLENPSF
Chain of NACHT, LRR and PYD domains-containing protein 1 (Q9C000 1213-1473 limits assumed): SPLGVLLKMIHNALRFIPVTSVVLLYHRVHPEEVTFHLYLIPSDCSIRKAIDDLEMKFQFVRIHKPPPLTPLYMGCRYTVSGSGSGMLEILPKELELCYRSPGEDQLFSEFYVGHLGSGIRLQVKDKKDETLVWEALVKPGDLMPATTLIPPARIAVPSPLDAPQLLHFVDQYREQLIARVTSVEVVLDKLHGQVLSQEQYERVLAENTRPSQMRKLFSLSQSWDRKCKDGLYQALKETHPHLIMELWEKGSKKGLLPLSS
The target in test [3] is Intestinal-type alkaline phosphatase (Mus musculus, UniProt P24822). In words: PubChem AID 488875. It is filed as functional.
Chain of Intestinal-type alkaline phosphatase (Mus musculus, UniProt P24822) (P24822 whole entry): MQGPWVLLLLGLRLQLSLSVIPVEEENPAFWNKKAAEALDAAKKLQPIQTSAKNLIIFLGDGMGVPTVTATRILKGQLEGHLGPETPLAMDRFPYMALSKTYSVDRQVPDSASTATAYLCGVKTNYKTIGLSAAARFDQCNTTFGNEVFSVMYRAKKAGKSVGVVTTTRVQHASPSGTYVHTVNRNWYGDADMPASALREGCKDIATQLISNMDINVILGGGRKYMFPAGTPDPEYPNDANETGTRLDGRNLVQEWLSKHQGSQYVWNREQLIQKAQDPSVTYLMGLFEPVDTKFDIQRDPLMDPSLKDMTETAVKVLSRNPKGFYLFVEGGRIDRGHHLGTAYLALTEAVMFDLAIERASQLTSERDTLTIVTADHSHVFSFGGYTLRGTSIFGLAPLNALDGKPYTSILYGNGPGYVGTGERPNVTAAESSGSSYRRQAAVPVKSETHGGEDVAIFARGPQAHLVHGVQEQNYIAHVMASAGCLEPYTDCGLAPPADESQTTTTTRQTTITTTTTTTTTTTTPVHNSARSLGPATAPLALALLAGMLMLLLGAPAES
For test [4], the target named is T2, Intestinal-type alkaline phosphatase (Homo sapiens, UniProt P09923). In words: human intestinal alkaline phosphatase activators, dose response, biochemical, luminescence, uHTS hits (AID 463120). It is filed as functional.
T2 sequence (P09923 whole entry): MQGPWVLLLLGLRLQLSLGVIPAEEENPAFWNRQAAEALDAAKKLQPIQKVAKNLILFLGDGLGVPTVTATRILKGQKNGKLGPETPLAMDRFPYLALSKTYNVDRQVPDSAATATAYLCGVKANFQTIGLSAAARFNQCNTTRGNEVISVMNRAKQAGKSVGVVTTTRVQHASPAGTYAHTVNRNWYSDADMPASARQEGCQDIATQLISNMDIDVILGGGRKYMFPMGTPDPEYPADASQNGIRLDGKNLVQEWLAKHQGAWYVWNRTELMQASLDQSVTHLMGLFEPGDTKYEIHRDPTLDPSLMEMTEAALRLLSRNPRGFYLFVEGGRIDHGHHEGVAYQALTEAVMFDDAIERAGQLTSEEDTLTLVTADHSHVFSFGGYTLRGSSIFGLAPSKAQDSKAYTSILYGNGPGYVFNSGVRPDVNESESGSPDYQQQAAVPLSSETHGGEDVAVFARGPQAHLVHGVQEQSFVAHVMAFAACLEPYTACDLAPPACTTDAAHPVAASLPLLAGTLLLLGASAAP
Test [5] has as its target T2, Intestinal-type alkaline phosphatase. In words: activation of human intestinal alkaline phosphatase – biochemical, luminescent, uHTS hits, set 2, dose response (AID 488817).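 Further: potency of activators that raise enzyme activity.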 It is filed as functional.
In test [6] the target is T3, Alkaline phosphatase, tissue-nonspecific isozyme (Homo sapiens, UniProt P05186).
T3 sequence (P05186 whole entry): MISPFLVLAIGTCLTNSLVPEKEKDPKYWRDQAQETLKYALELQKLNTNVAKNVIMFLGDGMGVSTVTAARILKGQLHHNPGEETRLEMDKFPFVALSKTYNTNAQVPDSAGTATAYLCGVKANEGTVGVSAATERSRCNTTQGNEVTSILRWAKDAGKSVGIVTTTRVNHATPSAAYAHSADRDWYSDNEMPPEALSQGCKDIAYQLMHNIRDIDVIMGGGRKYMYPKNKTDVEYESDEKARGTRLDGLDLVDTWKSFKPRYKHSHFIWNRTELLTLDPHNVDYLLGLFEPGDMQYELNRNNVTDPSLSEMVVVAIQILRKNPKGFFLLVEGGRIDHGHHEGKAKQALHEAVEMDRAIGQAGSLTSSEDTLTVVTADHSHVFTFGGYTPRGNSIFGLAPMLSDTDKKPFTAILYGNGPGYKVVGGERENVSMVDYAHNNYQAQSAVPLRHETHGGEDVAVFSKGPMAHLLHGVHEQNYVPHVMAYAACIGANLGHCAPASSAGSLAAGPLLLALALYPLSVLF
In words: activation of tissue-nonspecific alkaline phosphatase – biochemical, TNAP isozyme, human IAP uHTS hits, selectivity assay for human IAP activator project, dose response (AID 488886).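 Further: potency of compounds raising TNAP activity as a selectivity check on IAP activators.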 Format: functional.

The target in test [7] is T4, SUMO-activating enzyme (Homo sapiens, UniProt Q9UBT2). In words: blockers of UBC9-mediated SUMO conjugation – biochemical, AlphaScreen, SUMOylation inhibitor project, confirmation (AID 2018). Format: functional. For orientation: Bead proximity is the source of the signal in Alpha formats.
T4 sequence (Q9UBE0 whole entry): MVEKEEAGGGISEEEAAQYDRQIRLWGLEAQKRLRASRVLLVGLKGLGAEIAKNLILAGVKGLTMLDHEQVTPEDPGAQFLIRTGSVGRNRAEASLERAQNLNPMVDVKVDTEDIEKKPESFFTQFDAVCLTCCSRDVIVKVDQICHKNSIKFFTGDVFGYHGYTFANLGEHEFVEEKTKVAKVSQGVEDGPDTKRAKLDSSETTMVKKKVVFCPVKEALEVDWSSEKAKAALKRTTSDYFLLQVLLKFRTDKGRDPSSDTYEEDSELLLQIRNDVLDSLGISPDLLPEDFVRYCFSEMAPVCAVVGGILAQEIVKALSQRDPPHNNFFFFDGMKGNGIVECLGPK
T4 sequence (Q9UBT2 whole entry): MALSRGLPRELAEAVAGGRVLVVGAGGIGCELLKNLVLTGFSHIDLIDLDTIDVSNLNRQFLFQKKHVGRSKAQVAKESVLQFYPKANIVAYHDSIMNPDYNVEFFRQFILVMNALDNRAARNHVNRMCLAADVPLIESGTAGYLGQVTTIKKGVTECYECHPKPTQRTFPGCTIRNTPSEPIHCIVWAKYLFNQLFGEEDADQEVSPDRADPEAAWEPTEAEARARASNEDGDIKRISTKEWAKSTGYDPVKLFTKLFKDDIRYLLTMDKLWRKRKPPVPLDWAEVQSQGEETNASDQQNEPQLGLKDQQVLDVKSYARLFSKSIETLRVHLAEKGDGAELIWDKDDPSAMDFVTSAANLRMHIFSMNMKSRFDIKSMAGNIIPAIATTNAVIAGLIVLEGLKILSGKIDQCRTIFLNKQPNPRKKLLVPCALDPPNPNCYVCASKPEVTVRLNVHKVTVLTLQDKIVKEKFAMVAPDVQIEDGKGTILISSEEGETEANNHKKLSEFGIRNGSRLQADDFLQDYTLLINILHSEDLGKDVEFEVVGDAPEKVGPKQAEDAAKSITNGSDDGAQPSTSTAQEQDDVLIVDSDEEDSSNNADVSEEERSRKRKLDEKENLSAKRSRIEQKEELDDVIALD
For test [8], the target named is T4, SUMO-activating enzyme. Description: blockers of SAE1/SAE2–UBC9 SUMO transfer – biochemical, HTRF, uHTS, primary screen (AID 2006). It is filed as protein-complex assay. (Time-resolved FRET reads energy transfer from a long-lived donor to a nearby acceptor.)
Test [9] addresses Induced myeloid leukemia cell differentiation protein Mcl-1 (Homo sapiens, UniProt Q07820). It is filed as functional.
Test [10] deals with T5, Probable nicotinate-nucleotide adenylyltransferase (Staphylococcus aureus (strain N315), UniProt P65502). Format: functional, Staphylococcus aureus subsp. aureus N315.
T5 sequence (P65502 whole entry): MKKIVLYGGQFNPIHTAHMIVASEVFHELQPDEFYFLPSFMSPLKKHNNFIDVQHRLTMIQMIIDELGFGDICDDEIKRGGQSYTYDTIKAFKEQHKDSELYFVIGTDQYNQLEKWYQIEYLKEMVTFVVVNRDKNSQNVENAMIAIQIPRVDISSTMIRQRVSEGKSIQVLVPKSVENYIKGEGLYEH
The target in test [11] is T5, Probable nicotinate-nucleotide adenylyltransferase. Format: functional, Staphylococcus aureus subsp. aureus N315. The note with it: read-out: IC50_Mean.
Test [12] can be described thus: protection from phage-mediated lysis, alamar blue read-out – E. coli UTI89, K1F phage, bacterial capsule biogenesis inhibitors (AID 488966). Format: functional.
The target of the next test is Hexokinase (Trypanosoma brucei, UniProt Q38C41). Description: Confirmation assay for inhibitors of Trypanosoma brucei hexokinase 1-Analogue-first series. [Related pubchem assays (depositor defined):AID1430, AID1632, AID2516, AID2560, AID2579, AID2600, AID449725, AID492951]. It is filed as functional.
Test [13] deals with T6, E3 ubiquitin-protein ligase XIAP (Homo sapiens, UniProt P98170). In words: Counter Screen using XIAP-Bir3 for Chemical Antagonists of Bir1/2 domains of IAP-family anti-apoptotic proteins. [Related pubchem assays (depositor defined):AID1018, AID1449, AID1514, AID1638, AID1749, AID1750, AID488957, AID488963].
T6 sequence (P98170 whole entry): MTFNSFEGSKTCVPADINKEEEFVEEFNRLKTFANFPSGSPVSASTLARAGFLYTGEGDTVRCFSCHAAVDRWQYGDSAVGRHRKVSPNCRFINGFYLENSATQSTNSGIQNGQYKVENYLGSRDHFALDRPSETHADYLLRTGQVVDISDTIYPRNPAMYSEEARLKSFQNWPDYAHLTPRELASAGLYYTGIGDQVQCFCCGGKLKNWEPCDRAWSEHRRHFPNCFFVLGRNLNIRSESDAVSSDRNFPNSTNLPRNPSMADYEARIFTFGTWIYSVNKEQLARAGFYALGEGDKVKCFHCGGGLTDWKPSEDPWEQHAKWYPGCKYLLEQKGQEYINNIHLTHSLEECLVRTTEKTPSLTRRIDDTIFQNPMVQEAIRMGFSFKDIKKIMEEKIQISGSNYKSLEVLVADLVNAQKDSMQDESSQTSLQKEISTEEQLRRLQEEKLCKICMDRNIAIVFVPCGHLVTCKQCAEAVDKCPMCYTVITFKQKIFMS
For test [14], the target named is T6, E3 ubiquitin-protein ligase XIAP. In words: small molecules displacing peptide from XIAP – biochemical, IAP family, fluorescence polarization (AID 1018). Format: functional.

Activity calls are given as the source filed them.
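Wherever IC50 Mean is given: confirmatory dose-response retesting of NadD inhibitor hits first found in an ultra-high-throughput screen.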

Chain of Induced myeloid leukemia cell differentiation protein Mcl-1 (Q07820 whole entry): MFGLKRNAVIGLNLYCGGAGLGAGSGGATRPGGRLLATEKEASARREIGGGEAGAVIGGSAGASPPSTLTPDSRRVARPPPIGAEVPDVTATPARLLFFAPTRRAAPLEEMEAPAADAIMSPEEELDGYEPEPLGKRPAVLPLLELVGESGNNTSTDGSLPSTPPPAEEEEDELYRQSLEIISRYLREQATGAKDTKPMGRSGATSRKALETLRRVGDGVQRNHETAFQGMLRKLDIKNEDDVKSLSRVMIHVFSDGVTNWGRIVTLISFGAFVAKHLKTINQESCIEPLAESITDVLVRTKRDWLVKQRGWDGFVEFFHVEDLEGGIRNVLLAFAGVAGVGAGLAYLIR

`Cc1ccc(OCc2ccc(Cl)cc2)c([N+](=O)[O-])n1`: the EC50 (in general, the midpoint of the concentration-response curve) in test [1] is > 50 µM (inactive).

Turning to `Cc1cc(Cl)c(OCCCCN2CCOCC2)c(Br)c1`, the IC50 (in the test on Saccharomyces cerevisiae; in test [2]) was > 100 µM (inactive) in each case.

For the compound `Cc1cccc(NS(=O)(=O)c2cccc(C(=O)NNC(=O)c3ccccc3O)c2)c1`, the EC50 in test [3] was > 100 µM (inactive); in test [4], 16.1 µM (active); in [5], 23.5 µM (active); in test [6] it was 0.705 µM (active).

For the compound `N#Cc1c(NC(=O)CSc2ncnc3sccc23)oc(-c2ccco2)c1-c1ccco1`, the IC50 at SUMO-activating enzyme [7] is 2.82 µM (active); on SUMO-activating enzyme [8], 22.9 µM (active); in test [9], 4.69 µM (active); in [10], 8.79 µM (active); in test [11] it was 27.8 µM (active).

Regarding `COc1ccc(NC(=O)/C=C2\SC(=O)NC2=O)cc1`, in [12], the IC50 is > 150 µM (active).

As for `COc1ccc(C(=O)N2CCC(=O)c3ccc(Cl)cc32)cc1`, the IC50 on Hexokinase was > 25 µM (inactive).

For the compound `CCNC(=O)CSc1nnc(-c2cccc(S(=O)(=O)N(CC)CC)c2)n1CCc1ccccc1`, the figures for the IC50 in test [13] and in [14] were > 100 µM (inactive) and > 100 µM (not active), respectively.
